Results on 14 compounds are retold here after patent US6696436B1, “B-homoestra-1,3,5(10)-trienes as modulators of tubulin polymerization” (The United States of America as represented by the …, priority 1999, dated 2004).

Entries after “also recorded” stand apart in the source; their conditions may differ. A value given as a limit tells only on which side of the number the result lay.

What is called melting point is the temperature of the solid-liquid transition. The IC50 is the concentration needed to halve the response being measured.

For series [1], the system named is T1, tubulin.
T1 construct: other: 1.0 M glutamate, 10 μM tubulin; Effect on tubulin polymerization / microtubule assembly
In words: Tubulin polymerization inhibition in vitro (turbidity at 350 nm). It counts as biochemical. Particulars: for IC50: 1.0 M glutamate, 10 μM tubulin. The protocol: Microtubule assembly is followed in a temperature controlled recording spectrophotometer. For details and a discussion, see R. D'Amato et al., Proc Natl Acad Sci USA, 91:3964-3968 (1994).
A typical reaction mixture, which will have a final reaction volume of […], contains 1.0 M monosodium glutamate (pH 6.6), 1.0 mg/ml (10 μM) tubulin, 1.0 MM MgCl2, 4% (v/v) dimethylsulfoxide, and a compound to be tested at the desired concentration (typically 0.1 to 100 μM). The reaction mixtures are incubated for 15 min. at 37° C. and then chilled on ice. After addition of 10 μl 12.5 mM GTP (and, optionally, 0.33 mg/ml microtubule-associated proteins, or MAPs) to initiate polymerization, each reaction mixture is transferred to a cuvette at 0° C., and a baseline established. At time zero, the temperature controller of the spectrophotometer is set to a target temperature, typically between 25 and 37° C. Microtubule assembly is monitored by observing an increase in turbidity at 350 nm as the temperature of the reaction mixture rises to the set target temperature.
The results are presented in Table 1 as IC50 values (μM) for inhibition of tubulin polymerization. Alternatively, inhibition of microtubule assembly can be detected by transmission electron microscopy, as described in U.S. Pat. No. 5,504,074 which is hereby incorporated by reference in its entirety.

The subject of series [2] is T2, tubulin.
T2 construct: Activity in room temperature assay; other: no polymerization in the absence of drug; other: GTP-only system, critical concentrations
In words: Enhancement of glutamate- or MAP-induced tubulin assembly, turbidimetric curves (FIGS. 4 and 5). It counts as biochemical. Particulars: for Effect on MAP-induced tubulin assembly: 0.75 mg/ml MAPs, 1.0 mg/ml tubulin, 25° C. The protocol:
In those cases where acceleration of tubulin polymerization is observed, an IC50 value for inhibition of polymerization is of course not derivable. Results for such compounds may be presented in the form of turbidimetric curves, e.g. as presented in FIGS. 4 and 5 for representative compounds 13 and 18.
FIG. 4: Each reaction mixture contained 0.8 M glutamate (pH 6.6), 0.4 mM GTP, 12 μM (1.2 mg/ml) tubulin, 4% (v/v) dimethyl sulfoxide, and compound 13 or 18 as indicated. Baselines were established at 0°, and at time zero the temperature controller was set at 26°. At the time indicated by the dashed line, the temperature controller was set at 0°. A. Curve 1, no drug; curve 2, 2 μM compound 13; curve 3, 5 μM 7; curve 4, 10 μM 7; curve 5, 40 μM 7; curve 6, 40 μM 14. B. Curve 1, no drug; curve 2, 2 μM compound 18; curve 3, 5 μM 18; curve 4, 10 μM 18; curve 5, 40 μM 18.
FIG. 5: Each reaction mixture contained 0.1 M Mes (pH 6.9 with NaOH in 0.5 M stock solution), 0.1 mM GTP, 10 μM (1.0 mg/ml) tubulin, 0.75 mg/ml heat-treated MAPs, 4% dimethyl sulfoxide, and drug as indicated. […] There was no change in turbidity in any reaction mixture. At this point the temperature controller was set at 10°, and subsequent temperature changes, as indicated, were made at the times indicated by the vertical dashed lines. Curve 1, no drug; curve 2, 10 μM paclitaxel; curve 3, 10 μM compound 13; curve 4, 20 μM 7; curve 5, 40 μM 7; curve 6, 10 μM compound 18.

Series [3] has as its system T2, tubulin. Described as above. Type of series: biochemical.
For series [4], the system named is T2, tubulin. The series can be described thus: Tubulin polymerization inhibition in vitro (turbidity at 350 nm). Type of series: biochemical. Further details: key: *: Accelerates tubulin polymerization. Particulars: no IC50 derivable.
The next series concerns tumor cells. The series can be described thus: Inhibition of cell growth in the NCI Developmental Therapeutics Program tumor cell screen. Type of series: cell-based. Particulars: mean graph midpoint for all cell lines tested. The protocol:
The compounds of the invention were tested for inhibition of cell growth in the established tumor cell screen of the National Cancer Institute Developmental Therapeutics Program. See Boyd et al., Drug Dev. Res., 34:91-109 (1995). Results are presented in Table 1 as the “MGM” values (mean graph midpoint, in μM, for all cell lines tested).

Series [5] has as its system T2, tubulin. The series can be described thus: Critical concentration of tubulin for assembly, turbidimetric (FIG. 6). It counts as biochemical. The protocol:
FIG. 6 presents critical concentrations, obtained at 30° C., of tubulin with paclitaxel and compound 13. A: MAPs -and GTP-dependent assembly without drug and in the presence of 10 μM paclitaxel or 10 μM 13. B: GTP-dependent, MAP-independent assembly with 10 μM paclitaxel or 10 μM 13.
Measurement of the critical concentration with and without MAPs with paclitaxel, and again with 13, was therefore carried out to provide some idea of the comparative activity of these agents. The data are presented in FIG. 6, which yield critical concentrations, obtained at 30° C., of 1.4, 0.06, and 0.50 mg/ml for MAP-and GTP-dependent assembly without drug and in the presence of 10 μM paclitaxel or 10 μM 13, respectively, and 0.20 and 1.4 mg/ml for GTP-dependent, MAP-independent assembly with 10 μM paclitaxel or 10 μM 13. […] (A constant weight ratio of MAPs to tubulin of 1:3 was used, because the suboptimal concentration of MAPs caused greater differences in the critical concentrations obtained.) Reaction mixtures (0.25 ml) contained 0.1 M Mes (pH 6.9), 100 μM GTP, 4% dimethyl sulfoxide, the indicated tubulin concentration (with heat-treated MAPs in 1:3 weight ratio to the tubulin, panel A only), and either 10 μM paclitaxel (▴), 10 μM compound 13 (◯), or no drug (▾). Cuvette contents were equilibrated at 0°, drugs were added, temperature was jumped to 30° (about one min), and the turbidity changes after a 20 min incubation measured.

In series [6] the test system is T2, tubulin. In words: Polymer morphology by electron microscopy. It counts as biochemical. Particulars: 40 μM 13 or 10 μM paclitaxel. From the text: It was possible that compounds 13 and 18 were not actually acting like paclitaxel in enhancing microtubule assembly and in stabilizing the microtubules formed in the course of the turbidity studies shown in FIG. 4, but that these agents were causing formation of polymers of aberrant morphology and temperature stability different from microtubules, such as occurs with vinca alkaloids. Polymer morphology was examined by electron microscopy. […] Even more important, when the reaction mixtures were returned to 0° C. for 15 min, no microtubules were visualized on grids prepared from the reaction mixture without drug.

In the case of `CCOc1cc2c(cc1O)CC(=O)CC1C2CCC2(C)C(O)CCC12` (stereo not drawn) [Compound 9, B-Homo-3,170β-dihydroxy-2-ethoxyestra-1,3,5(10)-triene-7-one], the melting point lay within 210 to 212 °C. The compound further yielded an IC50 with tubulin [1] of over 40 µM.

In the series on tubulin [1], `CCOc1cc2c(cc1O)CC(=NNS(=O)(=O)c1ccc(C)cc1)CC1C2CCC2(C)C(O)CCC12` (stereo not drawn) [Compound 10, B-Homo-2-ethoxy-3,17β-dihydroxyestra-1,3,5(10)-triene-7-one toluenesulfonyl-hydrazone] came in with an IC50 of over 40 µM.

For `CCOc1cc2c(cc1O)CCCC1C2CCC2(C)C(O)CCC12` (stereo not drawn) [Compound 11, B-Homo-2-ethoxy-3.17β-estradiol], the melting point fell in the range of 86 to 88 °C. In addition, in the series on tubulin [1], the “Effect on tubulin polymerization / microtubule assembly” value was “inhibit tubulin polymerization” and half-maximal inhibition (IC50) was put at 1.3 µM.

As for `CCOc1cc2c(cc1OC(C)=O)CCCC1C2CCC2(C)C(OC(C)=O)CCC12` (stereo not drawn) [Compound 12, B-Homo-3,17β-diacetoxy-2-ethoxyestra-1,3,5(10)-triene], the melting point lay in the range of 98 to 100 °C. In the series on tubulin [1], this compound registered an IC50 of over 40 µM.

In the series on tubulin [1], `CCOc1cc2c(cc1O)C(=O)CCC1C2CCC2(C)C(O)CCC12` (stereo not drawn) [Compound 14, B-Homo-2-ethoxy-6-oxoestra-1,3,5(10)-trien-3,17β-diol] came in with an IC50 of over 40 µM. Moreover, the “Effect on glutamate- and MAP-induced tubulin assembly” value with tubulin [2] is “inactive”.

For `CCOc1cc2c(cc1O)C(=O)CC[C@@H]1[C@@H]2CC[C@]2(C)[C@@H](OC(C)=O)CC[C@@H]12` [Compound 18, B-Homo-17β-acetoxy-2-ethoxy-3-hydroxyestra-1,3,5(10)-trien-6-one], in the series with tubulin [3], the “Tubulin assembly in the absence of GTP” value is “has not been observed”. Besides, the “Effect on tubulin polymerization / microtubule assembly” value in the series with tubulin [1] is “stimulate microtubule assembly”. Also, in the series with tubulin [2], the “Effect on glutamate- and MAP-induced tubulin assembly” value was “activity was largely retained”; the “Effect on MAP-induced tubulin assembly” value is recorded as “enhanced tubulin assembly; also recorded: less stimulatory than 13; also recorded: significantly less than that of paclitaxel”. Moreover, the “Tubulin polymerization inhibition, symbol instead of IC50” value in the series with tubulin [4] is recorded as “*”.

`CCOc1cc2c(cc1OC(C)=O)C(=O)CCC1C2CCC2(C)C(O)CCC12` (stereo not drawn) [Compound 19, B-Homo-3-Acetoxy-2-ethoxy-17β-hydroxyestra-1,3,5(10)-trien-6-one]: the IC50 in the series on tubulin [1] is over 40 µM. In addition, in the series with tubulin [2], the “Effect on glutamate- and MAP-induced tubulin assembly” value was “inactive”.

`CCOc1cc2c(cc1O)C(=NO)C[C@@H]1[C@@H]2CC[C@]2(C)[C@@H](OC(C)=O)CC[C@@H]12` [Compound 27, 17β-Acetoxy-2-ethoxy-6-hydroximinoestra-1,3,5(10)-triene-3-ol] came in with a melting point of 226 to 227 °C. The “Cytotoxicity (MGM μM)” value with tumor cells is 0.567 µM. In the series on tubulin [1], the IC50 was over 40 µM.

For `CCOc1cc2c(cc1O)NC(=O)CC1C2CCC2(C)C(O)CCC12` (stereo not drawn) [Compound 29, B-Homo-6-aza-2-ethoxy-3,17β-dihydroxyestra-1,3,5(10)-trien-7-one], the melting point lay in the range of 222 to 223 °C. In the series with tumor cells, the “Cytotoxicity (MGM μM)” value turned out to be 16.2 µM. For the same compound, in the series on tubulin [1], the “Effect on tubulin polymerization / microtubule assembly” value was “inhibit tubulin polymerization” and the IC50 was 4 µM.

As for `CCOc1cc2c(cc1O)NCCC1C2CCC2(C)C(O)CCC12` (stereo not drawn) [Compound 30, B-Homo-6-aza-2-ethoxyestra-1,3,5(10)-triene-3,17β-diol], in the series on tumor cells, the “Cytotoxicity (MGM μM)” value turned out to be 49.0 µM. In the series with tubulin [1], this compound yielded an IC50 of over 40 µM.

As for `CCOc1cc2c(cc1OC(C)=O)N(C(C)=O)CCC1C2CCC2(C)C(OC(C)=O)CCC12` (stereo not drawn) [Compound 31, B-Homo-6-acetyl-6-aza-3,17β-diacetoxy-2-ethoxyestra-1,3,5(10)-triene], the “Cytotoxicity (MGM μM)” value in the series with tumor cells came to 38.0 µM. Further, the IC50 in the series on tubulin [1] is over 40 µM.

`CCOc1cc2c(cc1O)N(C(C)=O)CCC1C2CCC2(C)C(O)CCC12` (stereo not drawn) [Compound 32, B-Homo-6-acetyl-6-aza-2-ethoxyestra-1,3,5(10)-triene-3,17β-diol] came in with a melting point of 189 to 191 °C. Further, the “Cytotoxicity (MGM μM)” value with tumor cells came out at 35.5 µM. Also, in the series with tubulin [1], the “Effect on tubulin polymerization / microtubule assembly” value was “inhibit tubulin polymerization” and half-maximal inhibition (IC50) was put at 25 µM.

As to `CCOc1cc2c(cc1O)N(CC)CCC1C2CCC2(C)C(O)CCC12` (stereo not drawn) [Compound 33, B-Homo-6-aza-2-ethoxy-6-ethylestra-1,3,5(10)-triene-3,17β-diol], the “Cytotoxicity (MGM μM)” value in the series with tumor cells was 50.1 µM. Besides, the IC50 in the series on tubulin [1] is over 40 µM.

With `CC(=O)O[C@H]1C(=O)[C@@]2(C)[C@H]([C@H](OC(=O)c3ccccc3)[C@]3(O)C[C@H](OC(=O)[C@H](O)[C@@H](NC(=O)c4ccccc4)c4ccccc4)C(C)=C1C3(C)C)[C@]1(OC(C)=O)CO[C@@H]1C[C@@H]2O` [paclitaxel, Paclitaxel, reference compound], in the series with tubulin [5] (30° C., 10 μM drug, MAPs:tubulin 1:3 by weight), the “Critical concentration of tubulin, MAP- and GTP-dependent assembly” value worked out at 0.06 mg/mL. Also, the “Critical concentration of tubulin, GTP-dependent, MAP-independent assembly” value in the series on tubulin [5] (30° C., 10 μM drug, no MAPs) stood at 0.20 mg/mL. Moreover, in the series on tubulin [5] (from critical concentrations), the “Affinity for tubulin polymers relative to compound 13” value was 7-8 fold. Besides, the “Assembly reaction when either MAPs or GTP was omitted” value in the series on tubulin [3] (10 μM tubulin, 40 μM compound 13 or 10 μM paclitaxel) is on record as “a reaction was observed in both cases”. For the same compound, in the series on tubulin [2], the “Effect on MAP-induced tubulin assembly” value is on record as “much more extensive than that with compound 13”. The “Cold stable microtubules after return to 0° C. for 15 min” value in the series with tubulin [6] is reported as “abundant cold stable microtubules were observed”.
